Measurements from patent US8895518B2, “Cooperative conveyance of basic active principles by amphiphilic acid molecules” (Centre National de la Recherche Scientifique, priority 2009, dated 2014).
Where a name gives a salt, the structure may show the parent alone.

Legend:
Type in all cases: physicochemical
[1] = Photostability under natural light, visual observations; details: 4×10^−2 M solution, 25° C. water bath
Experimental: (§1) To carry out this study, the various solutions (4×10^−2 M) are placed in a 25° C. water bath under natural light for several weeks. This gentler mode of irradiation was preferred over the use of a Xenon lamp which degrades the active principle too rapidly and makes it impossible to establish a comparison.

[2] = Photodegradation monitored by UV / visible spectrophotometry; details: after two months under natural exposure; for λmax (nm): visible range
Experimental: The study of the photophysical properties of promethazine hydrochloride and the association Lac6P on the one hand, and mequitazine hydrochloride and the association Lac6M on the other, was thus undertaken by UV spectrophotometry.
This study was carried out on a Hewlett-Packard 8452A diode array spectrophotometer operating at wavelengths between 190 nm and 820 nm.
The solutions were analyzed in quartz cells at concentrations of 4×10 ^−2 M and 6.6×10^−5 M.
as §1
However, in order to better understand this phenomenon, photodegradation of the hydrochlorides and the associations Lac6P and Lac6M was monitored by visible spectrophotometry. This analysis technique is particularly suited to the study of this phenomenon because it takes color variations into account.
After two months under natural exposure, the appearance of a band for promethazine and mequitazine hydrochlorides, as well as for the catanionic association Lac6P, confirms the color changes observed. It is important to note that in visible spectrophotometry, perceived color is always complementary to absorbed radiation. For example, mequitazine hydrochloride absorbs in the green spectrum (λ=512 nm) and appears pink-purple.

[3] = Photodegradation quantified by HPLC (undegraded active principle in solution); details: after five days under natural light, 4×10^−2 M
Experimental: Promethazine photodegradation was monitored by HPLC on a Waters 2695 chromatograph equipped with Millipore 510 pumps and an XBridge RP18 column (2.1×100 nm, 3.5 μm). Promethazine is detected by UV-visible spectrophotometry, at a wavelength of 251 nm, with a Waters 2487 Dual λ Absorbance Detector. The mobile phase is composed of a 22/78 mixture of 0.1% formic acid in water and acetonitrile. Elution is carried out in isocratic mode with a flow rate of 0.35 ml/min^−1. The volumes injected are 10 μl. All the samples were injected three times.
A calibration curve is prepared beforehand with promethazine hydrochloride over a range of concentrations between 10^5 M and 5×10^−2 M.
In order to refine the results obtained, degradation of promethazine hydrochloride and the catanionic association Lac6P was quantified by high-performance liquid chromatography (HPLC). Degradation is monitored by assaying the quantity of undegraded active principle present in solution (FIG. 2).

## CC(CN1c2ccccc2Sc2ccccc21)N(C)C (centres unmarked) [Promethazine hydrochloride, promethazine hydrochloride]
[1]
  appearance of an insoluble product (visual observation): an insoluble compound appears after about two weeks under natural light
  colour change of the solution (visual observation): turns pink after 24 hours of exposure and changes to blue-violet after a few days
[2]
  Color observed: violet-indigo
  λmax (nm): 538 nm
[3]
  degradation rate: 13%

## c1ccc2c(c1)Sc1ccccc1N2CC1CN2CCC1CC2 (centres unmarked) [Mequitazine hydrochloride, mequitazine hydrochloride]
[1]
  colour change of the solution (visual observation): turns pink after ten days of exposure, and then changes no further
[2]
  Color observed: pink-purple
  λmax (nm): 512 nm
